Test results published in patent publication US11566057B2, “Long-acting co-agonists of the glucagon and GLP-1 receptors” (Merck Sharp & Dohme Corp., priority 2017, dated 2023).
Numbered stars: 1 amine (or outer) side, 2 acyl side, 3 side chain; on linkers, the order of the positions; unused ones are H or OH. Square brackets hold non-standard residues; d marks the D form. Side chains are listed from the residue outwards. Peptide text beside a SMILES is read from it. * marks the point of attachment. Phe(4-CH2NH2) = NCc1ccc(C[C@H](N)C(=O)O)cc1; C18 diacid = O=C(O)CCCCCCCCCCCCCCCCC(=O)*; αMeW = C[C@](N)(Cc1c[nH]c2ccccc12)C(=O)O; C16 diacid = O=C(O)CCCCCCCCCCCCCCC(=O)*; γGlu = O=C(O)[C@H](CCC(=O)[*:2])N[*:1]; Met(O2) = CS(=O)(=O)CC[C@H](N)C(=O)O; αMeD = C[C@](N)(CC(=O)O)C(=O)O; AEEA = NCCOCCOCC(=O)O; Aib = CC(C)(N)C(=O)O

Molecular target: T1, human GCGR (Homo sapiens, UniProt P47871)
T1 construct: expressed in transfected cells; growth medium holds Blasticidin and Hygromycin
T1 sequence (P47871 26-477): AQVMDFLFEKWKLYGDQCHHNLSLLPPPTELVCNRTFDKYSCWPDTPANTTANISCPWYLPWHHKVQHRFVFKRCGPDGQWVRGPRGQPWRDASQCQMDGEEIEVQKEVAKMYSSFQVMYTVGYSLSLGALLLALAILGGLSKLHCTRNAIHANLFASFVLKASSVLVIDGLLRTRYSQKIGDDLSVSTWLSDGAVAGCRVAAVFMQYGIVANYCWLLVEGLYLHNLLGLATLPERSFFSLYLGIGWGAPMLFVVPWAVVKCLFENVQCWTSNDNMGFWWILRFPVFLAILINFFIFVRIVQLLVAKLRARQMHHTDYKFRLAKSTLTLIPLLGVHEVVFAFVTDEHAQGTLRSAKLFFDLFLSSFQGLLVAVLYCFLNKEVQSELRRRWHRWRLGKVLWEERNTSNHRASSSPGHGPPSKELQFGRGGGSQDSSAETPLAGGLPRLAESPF
Test: cAMP activity assay at the Glucagon receptor (GCGR)
Type: cell-based
Conditions: cells expressing human GCGR, cAMP production; buffer with or without 20% human serum (not stated which); read-out: GCGR EC50 human
Protocol: Activity of the peptides at the Glucagon receptor (GCGR) and GLP-1 receptor (GLP1R) was measured in a cAMP activity assay.
GCG/GLP-1 receptor co-agonist peptides were dissolved in 100% DMSO (dimethyl sulfoxide) and serially diluted to generate 10 point titrations. The peptide solutions were then transferred into 384-well assay plates (150 nL/well). Assay ready frozen cells expressing human GLP1R or human GCGR were suspended in growth media consisting of DMEM medium (GIBCO®), 10% FBS (GIBCO®), 1×NEAA(GIBCO®), 1×P/S (GIBCO®), 10 ug/mL Blasticidin (GIBCO®) and 200 μg/mL Hygromycin (GIBCO®). […] The cell suspensions (15 μL) were then added to the assay plates containing the peptide solutions (30,000 cells/well for human GCGR; 10,000 cells/well for human GLP1R). The cells were incubated for 1 hour at room temperature in the dark. Production of cAMP was determined using HitHunter™ cAMPXS kits (DiscoverX) following manufacturer protocol. The plates were incubated for overnight at room temperature in the dark. Luminescence was measured using an EnVision Multilabel plate reader (Perkin Elmer). Native GLP-1 and Glucagon (Bachem) are used as control peptides. EC50 values were calculated using uses a 4 parameter logistic fit based on the Levenberg-Marquardt algorithm.

| Molecule | EC50 |
| --- | --- |
| CC(C)C[C@H](NC(=O)[C@H](Cc1ccc(O)cc1)NC(=O)[C@H](CCC(=O)O)NC(=O)[C@H](CO)NC(=O)[C@H](Cc1ccc(O)cc1)NC(=O)[C@H](CC(=O)O)NC(=O)[C@H](CO)NC(=O)[C@@H](NC(=O)[C@H](Cc1ccccc1)NC(=O)[C@@H](NC(=O)CNC(=O)[C@H](CCC(N)=O)NC(=O)C(C)(C)NC(=O)[C@@H](N)Cc1c[nH]cn1)[C@@H](C)O)[C@@H](C)O)C(=O)N[C@@H](CC(=O)O)C(=O)N[C@@H](CCCCN)C(=O)N[C@@H](CCCNC(=N)N)C(=O)N[C@@H](C)C(=O)N[C@@H](C)C(=O)N[C@@H](CCC(N)=O)C(=O)N[C@@H](CC(=O)O)C(=O)N[C@@H](Cc1ccccc1)C(=O)N[C@H](C(=O)N[C@@H](CCCCNC(=O)COCCOCCNC(=O)COCCOCCNC(=O)CC[C@H](NC(=O)CCCCCCCCCCCCCCCCC(=O)O)C(=O)O)C(=O)N[C@@H](Cc1c[nH]c2ccccc12)C(=O)N[C@@H](CC(C)C)C(=O)N[C@@H](CCS(C)(=O)=O)C(=O)N[C@@H](CC(=O)O)C(=O)N[C@H](C(N)=O)[C@@H](C)O)C(C)C [TP700] (H-H[Aib]QGTFTSDYSEYLDKRAAQDFVK([AEEA-AEEA-γGlu-C18 diacid])WL[Met(O2)]DT-NH2) | > 4.9 nM |

Same assay, conditions: ratio of GCGR EC50 to GLP1R EC50

| Molecule | hGCGR/hGLP1R (hTone) |
| --- | --- |
| CC(C)C[C@H](NC(=O)[C@H](Cc1ccc(O)cc1)NC(=O)[C@H](CCCCN)NC(=O)[C@H](CO)NC(=O)[C@H](Cc1ccc(O)cc1)NC(=O)[C@H](CC(=O)O)NC(=O)[C@H](CO)NC(=O)[C@@H](NC(=O)[C@H](Cc1ccccc1)NC(=O)[C@@H](NC(=O)CNC(=O)[C@H](CCC(N)=O)NC(=O)C(C)(C)NC(=O)[C@@H](N)Cc1c[nH]cn1)[C@@H](C)O)[C@@H](C)O)C(=O)N[C@@H](CC(=O)O)C(=O)N[C@@H](C)C(=O)N[C@@H](CCCNC(=N)N)C(=O)N[C@@H](C)C(=O)N[C@@H](C)C(=O)N[C@@H](CCCCNC(=O)COCCOCCNC(=O)COCCOCCNC(=O)CC[C@H](NC(=O)CCCCCCCCCCCCCCC(=O)O)C(=O)O)C(=O)N[C@@H](CC(=O)O)C(=O)N[C@@H](Cc1ccccc1)C(=O)N[C@H](C(=O)N[C@@H](CCC(N)=O)C(=O)N[C@@](C)(Cc1c[nH]c2ccccc12)C(=O)N[C@@H](CC(C)C)C(=O)N[C@@H](CCS(C)(=O)=O)C(=O)N[C@@H](CC(=O)O)C(=O)N[C@H](C(N)=O)[C@@H](C)O)C(C)C [TP630] (H-H[Aib]QGTFTSDYSKYLDARAAK([AEEA-AEEA-γGlu-C16 diacid])DFVQ[αMeW]L[Met(O2)]DT-NH2; N-terminus assumed) | 3.0 |
| CC(C)C[C@H](NC(=O)[C@H](Cc1ccc(O)cc1)NC(=O)[C@H](CCCCN)NC(=O)[C@H](CO)NC(=O)[C@H](Cc1ccc(O)cc1)NC(=O)[C@H](CC(=O)O)NC(=O)[C@H](CO)NC(=O)[C@@H](NC(=O)[C@H](Cc1ccccc1)NC(=O)[C@@H](NC(=O)CNC(=O)[C@H](CCC(N)=O)NC(=O)C(C)(C)NC(=O)[C@@H](N)Cc1c[nH]cn1)[C@@H](C)O)[C@@H](C)O)C(=O)N[C@@H](CC(=O)O)C(=O)N[C@@H](C)C(=O)N[C@@H](CCCNC(=N)N)C(=O)N[C@@H](C)C(=O)N[C@@H](C)C(=O)N[C@@H](CCCCNC(=O)COCCOCCNC(=O)COCCOCCNC(=O)CC[C@H](NC(=O)CCCCCCCCCCCCCCCCC(=O)O)C(=O)O)C(=O)N[C@@H](CC(=O)O)C(=O)N[C@@H](Cc1ccccc1)C(=O)N[C@H](C(=O)N[C@@H](CCC(N)=O)C(=O)N[C@@](C)(Cc1c[nH]c2ccccc12)C(=O)N[C@@H](CC(C)C)C(=O)N[C@@H](CCS(C)(=O)=O)C(=O)N[C@@](C)(CC(=O)O)C(=O)N[C@H](C(N)=O)[C@@H](C)O)C(C)C [TP632] (H-H[Aib]QGTFTSDYSKYLDARAAK([AEEA-AEEA-γGlu-C18 diacid])DFVQ[αMeW]L[Met(O2)][αMeD]T-NH2) | 0.9 |
| CC(C)C[C@H](NC(=O)[C@H](Cc1ccc(O)cc1)NC(=O)[C@H](CCCCN)NC(=O)[C@H](CO)NC(=O)[C@H](Cc1ccc(O)cc1)NC(=O)[C@H](CC(=O)O)NC(=O)[C@H](CO)NC(=O)[C@@H](NC(=O)[C@H](Cc1ccccc1)NC(=O)[C@@H](NC(=O)CNC(=O)[C@H](CCC(N)=O)NC(=O)C(C)(C)NC(=O)[C@@H](N)Cc1c[nH]cn1)[C@@H](C)O)[C@@H](C)O)C(=O)N[C@@H](CC(=O)O)C(=O)N[C@@H](C)C(=O)N[C@@H](CCCNC(=N)N)C(=O)N[C@@H](C)C(=O)N[C@@H](C)C(=O)N[C@@H](CCC(N)=O)C(=O)N[C@@H](CC(=O)O)C(=O)N[C@@H](Cc1ccccc1)C(=O)N[C@H](C(=O)N[C@@H](Cc1ccc(CNC(=O)CC[C@H](NC(=O)CCCCCCCCCCCCCCCCC(=O)O)C(=O)O)cc1)C(=O)N[C@@H](Cc1c[nH]c2ccccc12)C(=O)N[C@@H](CC(C)C)C(=O)N[C@@H](CC(C)C)C(=O)N[C@@H](CC(=O)O)C(=O)N[C@H](C(N)=O)[C@@H](C)O)C(C)C [TP639] (H-H[Aib]QGTFTSDYSKYLDARAAQDFV[Phe(4-CH2NH2)]([γGlu-C18 diacid])WLLDT-NH2; N-terminus assumed) | 1.6 |
| CC(C)C[C@H](NC(=O)[C@H](CC(C)C)NC(=O)[C@H](CCCCN)NC(=O)[C@H](CO)NC(=O)[C@H](Cc1ccc(O)cc1)NC(=O)[C@H](CC(=O)O)NC(=O)[C@H](CO)NC(=O)[C@@H](NC(=O)[C@H](Cc1ccccc1)NC(=O)[C@@H](NC(=O)CNC(=O)[C@H](CCC(N)=O)NC(=O)C(C)(C)NC(=O)[C@@H](N)Cc1c[nH]cn1)[C@@H](C)O)[C@@H](C)O)C(=O)N[C@@H](CC(=O)O)C(=O)N[C@@H](C)C(=O)N[C@@H](CCCNC(=N)N)C(=O)N[C@@H](C)C(=O)N[C@@H](C)C(=O)N[C@@H](CCCCNC(=O)COCCOCCNC(=O)COCCOCCNC(=O)CC[C@H](NC(=O)CCCCCCCCCCCCCCCCC(=O)O)C(=O)O)C(=O)N[C@@H](CC(=O)O)C(=O)N[C@@H](Cc1ccccc1)C(=O)N[C@H](C(=O)N[C@@H](CCC(N)=O)C(=O)N[C@@H](Cc1c[nH]c2ccccc12)C(=O)N[C@@H](CC(C)C)C(=O)N[C@@H](CCS(C)(=O)=O)C(=O)N[C@@](C)(CC(=O)O)C(=O)N[C@H](C(N)=O)[C@@H](C)O)C(C)C [TP640] (H-H[Aib]QGTFTSDYSKLLDARAAK([AEEA-AEEA-γGlu-C18 diacid])DFVQWL[Met(O2)][αMeD]T-NH2) | 0.8 |
| CC(C)C[C@H](NC(=O)[C@H](Cc1c[nH]c2ccccc12)NC(=O)[C@H](CCC(N)=O)NC(=O)[C@@H](NC(=O)[C@H](Cc1ccccc1)NC(=O)[C@H](CC(=O)O)NC(=O)[C@H](CCC(N)=O)NC(=O)[C@H](C)NC(=O)[C@H](C)NC(=O)[C@H](CCCNC(=N)N)NC(=O)C(C)(C)NC(=O)[C@H](CC(=O)O)NC(=O)[C@H](CC(C)C)NC(=O)[C@H](Cc1ccc(O)cc1)NC(=O)[C@H](CCCCN)NC(=O)[C@H](CO)NC(=O)[C@H](Cc1ccc(O)cc1)NC(=O)[C@H](CC(=O)O)NC(=O)[C@H](CO)NC(=O)[C@@H](NC(=O)[C@H](Cc1ccccc1)NC(=O)[C@@H](NC(=O)CNC(=O)[C@H](CCC(N)=O)NC(=O)[C@@H](CO)NC(=O)[C@@H](N)Cc1c[nH]cn1)[C@@H](C)O)[C@@H](C)O)C(C)C)C(=O)N[C@@H](CC(C)C)C(=O)N[C@@H](CCCCNC(=O)COCCOCCNC(=O)COCCOCCNC(=O)CC[C@H](NC(=O)CCCCCCCCCCCCCCCCC(=O)O)C(=O)O)C(=O)N[C@H](C(=O)N[C@@H](CCCCN)C(=O)N[C@@H](CCC(N)=O)C(=O)O)[C@@H](C)O [TP685] (H-H[dS]QGTFTSDYSKYLD[Aib]RAAQDFVQWLLK([AEEA-AEEA-γGlu-C18 diacid])TKQ-OH; N-terminus and C-terminus assumed) | 7.9 |
| CCCCCCCCCCCCCCCc1cn(CCCC[C@H](NC(=O)[C@H](CC(=O)O)NC(=O)[C@H](CO)NC(=O)[C@@H](NC(=O)[C@H](Cc2ccccc2)NC(=O)[C@@H](NC(=O)CNC(=O)[C@H](CCC(N)=O)NC(=O)[C@@H](CO)NC(=O)[C@@H](N)Cc2c[nH]cn2)[C@@H](C)O)[C@@H](C)O)C(=O)N[C@@H](CO)C(=O)N[C@@H](CCCCN)C(=O)N[C@@H](Cc2ccc(O)cc2)C(=O)N[C@@H](CC(C)C)C(=O)N[C@@H](CC(=O)O)C(=O)N[C@@H](C)C(=O)N[C@@H](CCCNC(=N)N)C(=O)N[C@@H](C)C(=O)N[C@@H](C)C(=O)N[C@@H](CCC(N)=O)C(=O)N[C@@H](CC(=O)O)C(=O)N[C@@H](Cc2ccccc2)C(=O)N[C@H](C(=O)N[C@@H](CCC(N)=O)C(=O)N[C@@H](Cc2c[nH]c3ccccc23)C(=O)N[C@@H](CC(C)C)C(=O)N[C@@H](CC(C)C)C(=O)N[C@@H](CC(=O)O)C(=O)N[C@H](C(N)=O)[C@@H](C)O)C(C)C)nn1 [TP829] | 1.56 |
| HsQGTFTSDNle(1,2,3-triazole-4-C4-Lys-C16)SKYLDARAAQDFVQWLLDT-NH2 (HXQGTFTSDXSKYLDARAAQDFVQWLLDT; D-Ser, Nle-triazole-C4-Lys-C16 lipid; C-terminal amide; peptide TP831; (2)..(2) Xaa is D-Serine; (10)..(10) Xaa is Nle(1,2,3-triazole-4-C4-Lys-C16); (29)..(29) Xaa is C-terminal amide) | 1.66 |
| HsQGTFTSDNle(1,2,3-triazole-4-γE-C16)SKYLDARAAQDFVQWLLDT-NH2 (HXQGTFTSDXSKYLDARAAQDFVQWLLDT; D-Ser, Nle-triazole-γE-C16 lipid; C-terminal amide; peptide TP830; (2)..(2) Xaa is D-Serine; (10)..(10) Xaa is Nle(1,2,3-triazole-4-gammaGlu-C16); (29)..(29) Xaa is C-terminal amide) | 0.64 |
